Test results reported in patent US20220218699A1, “New Pharmaceutical Formulation” (Hoffmann-La Roche Inc., priority 2019, published 2022).

What was measured:
[1] = molecular target: TrkB (Homo sapiens, UniProt Q16620); conditions: cited from earlier work
[2] = molecular target: anaplastic lymphoma kinase (ALK) (Homo sapiens, UniProt Q9UM73); conditions: cited from earlier work
[3] = molecular target: TrkC (Homo sapiens, UniProt Q16288); conditions: cited from earlier work
[4] = Single-dose food effect study in dogs; format: in vivo; conditions: formulation that did not comprise at least one acidulant
Text: Such food effects can cause difficulty during human testing of drugs as the fed or fasted condition of the patient can cause exposure or bioavailability of drugs to vary widely.

Sequence of anaplastic lymphoma kinase (ALK) (Q9UM73 19-1620): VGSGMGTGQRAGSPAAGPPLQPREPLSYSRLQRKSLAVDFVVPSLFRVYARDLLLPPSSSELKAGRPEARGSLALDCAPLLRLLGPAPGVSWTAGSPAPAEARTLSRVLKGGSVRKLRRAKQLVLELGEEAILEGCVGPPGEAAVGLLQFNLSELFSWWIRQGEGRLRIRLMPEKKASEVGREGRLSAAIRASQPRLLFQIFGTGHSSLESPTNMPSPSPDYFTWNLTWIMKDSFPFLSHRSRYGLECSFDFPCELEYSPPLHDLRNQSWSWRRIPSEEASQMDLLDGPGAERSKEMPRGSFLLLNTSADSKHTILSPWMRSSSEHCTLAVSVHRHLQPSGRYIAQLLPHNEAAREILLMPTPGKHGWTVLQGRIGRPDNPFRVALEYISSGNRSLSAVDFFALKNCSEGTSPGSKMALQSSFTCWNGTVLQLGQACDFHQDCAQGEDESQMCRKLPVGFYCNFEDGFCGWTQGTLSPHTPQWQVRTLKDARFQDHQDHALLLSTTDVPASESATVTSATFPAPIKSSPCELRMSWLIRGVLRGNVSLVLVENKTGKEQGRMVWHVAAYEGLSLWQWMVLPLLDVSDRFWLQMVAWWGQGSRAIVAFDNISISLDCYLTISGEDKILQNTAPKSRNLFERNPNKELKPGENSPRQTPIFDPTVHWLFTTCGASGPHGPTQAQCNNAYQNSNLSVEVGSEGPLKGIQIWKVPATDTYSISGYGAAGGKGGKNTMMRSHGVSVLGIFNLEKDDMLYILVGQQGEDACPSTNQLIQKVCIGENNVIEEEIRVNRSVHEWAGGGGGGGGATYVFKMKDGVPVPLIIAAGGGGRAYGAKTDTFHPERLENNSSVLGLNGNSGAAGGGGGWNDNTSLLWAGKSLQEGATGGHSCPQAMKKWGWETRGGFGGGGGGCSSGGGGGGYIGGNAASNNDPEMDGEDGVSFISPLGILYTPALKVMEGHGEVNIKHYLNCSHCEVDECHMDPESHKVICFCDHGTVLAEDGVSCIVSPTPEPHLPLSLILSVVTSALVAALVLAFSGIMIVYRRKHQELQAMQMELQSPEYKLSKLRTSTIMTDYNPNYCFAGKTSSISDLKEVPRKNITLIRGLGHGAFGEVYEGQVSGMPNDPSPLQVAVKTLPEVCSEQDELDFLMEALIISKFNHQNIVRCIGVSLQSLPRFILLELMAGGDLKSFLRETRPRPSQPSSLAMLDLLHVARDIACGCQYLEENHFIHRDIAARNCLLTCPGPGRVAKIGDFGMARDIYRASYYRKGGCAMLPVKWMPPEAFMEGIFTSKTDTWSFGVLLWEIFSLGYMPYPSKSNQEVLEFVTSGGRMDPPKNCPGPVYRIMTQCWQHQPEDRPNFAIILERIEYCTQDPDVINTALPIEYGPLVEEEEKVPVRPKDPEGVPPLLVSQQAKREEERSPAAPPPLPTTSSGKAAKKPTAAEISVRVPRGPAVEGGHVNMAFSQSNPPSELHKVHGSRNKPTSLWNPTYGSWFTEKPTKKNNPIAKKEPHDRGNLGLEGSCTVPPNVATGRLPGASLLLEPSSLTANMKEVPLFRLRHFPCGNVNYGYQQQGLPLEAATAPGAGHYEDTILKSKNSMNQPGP
Sequence of TrkC (Q16288 32-839): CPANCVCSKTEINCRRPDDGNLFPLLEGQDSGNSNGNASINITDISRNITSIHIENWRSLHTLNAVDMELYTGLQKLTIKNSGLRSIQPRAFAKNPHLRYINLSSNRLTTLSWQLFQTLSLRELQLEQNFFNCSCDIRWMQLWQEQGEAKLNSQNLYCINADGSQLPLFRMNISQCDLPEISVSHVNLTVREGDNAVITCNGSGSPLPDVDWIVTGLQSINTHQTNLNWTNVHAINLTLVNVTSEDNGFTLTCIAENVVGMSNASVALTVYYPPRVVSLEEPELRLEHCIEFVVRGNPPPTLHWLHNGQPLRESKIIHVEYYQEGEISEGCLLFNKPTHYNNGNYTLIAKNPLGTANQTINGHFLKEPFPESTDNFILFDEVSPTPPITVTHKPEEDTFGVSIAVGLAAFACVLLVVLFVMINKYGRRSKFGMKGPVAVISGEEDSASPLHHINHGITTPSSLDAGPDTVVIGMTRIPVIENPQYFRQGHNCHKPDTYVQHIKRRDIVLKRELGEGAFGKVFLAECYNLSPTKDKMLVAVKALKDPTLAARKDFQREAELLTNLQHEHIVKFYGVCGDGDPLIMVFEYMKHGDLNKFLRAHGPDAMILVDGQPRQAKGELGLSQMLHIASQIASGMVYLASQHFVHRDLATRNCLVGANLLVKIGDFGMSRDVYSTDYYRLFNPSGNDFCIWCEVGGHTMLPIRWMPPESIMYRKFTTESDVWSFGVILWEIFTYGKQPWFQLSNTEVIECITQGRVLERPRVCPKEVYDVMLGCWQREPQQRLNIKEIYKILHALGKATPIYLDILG
Sequence of TrkB (Q16620 32-822): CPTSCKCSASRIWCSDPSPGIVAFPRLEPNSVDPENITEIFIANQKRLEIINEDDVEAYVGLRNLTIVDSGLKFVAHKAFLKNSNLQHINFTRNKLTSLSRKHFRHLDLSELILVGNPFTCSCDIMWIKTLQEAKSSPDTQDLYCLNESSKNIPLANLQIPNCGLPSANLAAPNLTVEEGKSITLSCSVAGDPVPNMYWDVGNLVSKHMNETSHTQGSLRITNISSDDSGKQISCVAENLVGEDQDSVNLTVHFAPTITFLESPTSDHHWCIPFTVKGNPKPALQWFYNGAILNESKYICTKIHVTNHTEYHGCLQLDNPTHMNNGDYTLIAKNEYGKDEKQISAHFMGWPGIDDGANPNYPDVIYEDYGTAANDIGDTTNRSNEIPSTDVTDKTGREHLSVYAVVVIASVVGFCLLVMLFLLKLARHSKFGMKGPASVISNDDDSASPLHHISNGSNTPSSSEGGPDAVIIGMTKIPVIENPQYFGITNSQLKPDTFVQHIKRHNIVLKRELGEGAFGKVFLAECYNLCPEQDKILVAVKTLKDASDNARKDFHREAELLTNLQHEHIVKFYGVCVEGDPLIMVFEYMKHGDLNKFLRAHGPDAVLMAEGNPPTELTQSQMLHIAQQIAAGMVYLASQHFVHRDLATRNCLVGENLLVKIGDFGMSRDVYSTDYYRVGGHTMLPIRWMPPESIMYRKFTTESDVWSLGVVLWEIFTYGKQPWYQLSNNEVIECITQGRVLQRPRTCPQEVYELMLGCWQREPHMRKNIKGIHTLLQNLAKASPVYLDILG

CN1CCN(c2ccc(C(=O)Nc3n[nH]c4ccc(Cc5cc(F)cc(F)c5)cc34)c(NC3CCOCC3)c2)CC1 [N-[5-(3,5-difluorobenzyl)-1H-indazol-3-yl]-4-(4-methyl-piperazin-1-yl)-2-(tetrahydro-pyran-4-ylamino)-benzamide]
inhibition of tyrosine kinase TrkB [1]: potent inhibitor | inhibition of tyrosine kinase ALK [2]: potent inhibitor | inhibition of tyrosine kinase TrkC [3]: potent inhibitor | exposure levels under fed conditions compared to fasting conditions [4]: approximately 2 fold
